According to PMC12332667, “Role of Structural Modifications in Peptidomimetic Compounds as Potential Antimicrobial Agents against Staphylococcus aureus and Streptococcus pyogenes: Balancing Bioavailability, Safety, and Antimicrobial Activity” (ACS Omega, 2025):
≈ marks a conversion by molar mass, not a printed value. Where “and” joins values, the source holds several entries; their conditions need not be identical. Identical values can stand only once. Residues, ends and D or L forms follow the SMILES beside them.

Tests used:
[1] = test system: immortalized human keratinocytes (HaCaT); assay: LDH cytotoxicity test, keratinocytes; assay type: cell-based; conditions: for cytotoxicity (LDH), in words / concentration at which cytotoxic effect starts: 48 h; for cytotoxicity (LDH), in words: 50-150 μg/mL; for concentration at which cytotoxic effect starts: LDH
How it was run: (§1)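 Cytotoxicity as LDH release after 48 h serum-free treatment (50, 100, 150 μg/mL peptidomimetics) of 46BR.1N fibroblasts or HaCaT keratinocytes seeded at 5000 per well. Absorbance 450 nm; untreated set as 0% and Triton X-100 1% as maximal release; Mann–Whitney U test, p ≤ 0.05.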

[2] = test system: S. cohnii c.i.; assay: MIC/MBC broth microdilution, S. cohnii; assay type: cell-based, Staphylococcus cohnii
How it was run: (§2)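 Bacteria inoculated at about 10^5 CFU/mL in BHI broth and incubated 18 h at 37 °C with serial dilutions of peptidomimetics, NCCLS microdilution format. MBC taken as lowest concentration leaving no more than 3 colonies (≥99.9% kill); MIC as lowest concentration without obvious growth (≥90% of untreated); solvent controls included.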

[3] = test system: fibroblasts (46BR.1N); assay: LDH cytotoxicity test, fibroblasts; assay type: cell-based; conditions: for cytotoxicity (LDH), in words / concentration at which cytotoxic effect starts: 48 h; for cytotoxicity (LDH), in words: 50-150 μg/mL; for concentration at which cytotoxic effect starts: LDH
How it was run: as §1

[4] = test system: E. coli ATCC 25922; assay: MIC/MBC broth microdilution, E. coli; assay type: cell-based, Escherichia coli
How it was run: as §2

[5] = test system: S. intemrdius c.i.; assay: MIC/MBC broth microdilution, S. intermedius; assay type: cell-based, Staphylococcus intermedius
How it was run: as §2

[6] = Stability / presence in human plasma; assay type: in vitro ADME; conditions: 24 h incubation at 37 °C
Experimental: Blood was drawn from healthy volunteers, and lithium/heparin holding tubes were used to remove the clot by centrifugation. The plasma was aliquoted in sterile conditions and incubated with the desired compounds for 24 h at 37 °C. The samples were prepared under sterile conditions following the previously described protocol. The samples were collected at six time points (0, 1, 2, 3, 6, and 24 h) for determining stability in water solutions, and time points of 0, 10, 20, 30, 40, 50, and 60 min, as well as of 2, 3, 6, and 24 h, for determining stability in human plasma. The analysis was performed by HPLC using a Kromasil C8 column (5 μm, 90 Å, 1.0 mm × 250 mm) monitored by a PDA or ELDS-LT II detector. For quantification, peak areas were compared to a calibration curve calculated by Shimadzu LCsolution Software (Kyoto, Japan). Graphs were prepared in GraphPad Prism (Boston, USA).

[7] = 48 h, 50, 100 and 150 μg/mL, vs 1% Triton X-100

CC(C)[C@@H](CNC(=O)C(=Cc1ccccc1)c1ccccc1)NC(=O)[C@H](Cc1c[nH]cn1)NC(=O)[C@H](CCCCNC(=N)N)NC(=O)OCc1ccccc1 [Compound A-193]
cytotoxicity (LDH), in words [1]: cytotoxic only at a concentration of 150 μg/mL | concentration at which cytotoxic effect starts [1]: 150 µg/mL | MBC ([2]; water additive DMSO): 256 µg/mL (≈ 341 µM) | cytotoxicity (LDH), in words [3]: cytotoxic only at a concentration of 150 μg/mL | concentration at which cytotoxic effect starts [3]: 150 µg/mL | MBC ([4]; H2O): 256 µg/mL (≈ 341 µM) | MIC ([4]; H2O): 256 µg/mL (≈ 341 µM) | MIC ([4]; water additive DMSO): > 512 µg/mL | MBC ([4]; water additive EtOH): 512 µg/mL (≈ 683 µM) | MIC ([4]; water additive EtOH): 256 µg/mL (≈ 341 µM) | MBC ([5]; H2O): 32 µg/mL (≈ 42.7 µM) | MIC ([5]; H2O): 16 µg/mL (≈ 21.3 µM) | MIC ([5]; water additive DMSO): 32 µg/mL (≈ 42.7 µM) | MBC ([5]; water additive EtOH): 32 µg/mL (≈ 42.7 µM) | MIC ([5]; water additive EtOH): 16 µg/mL (≈ 21.3 µM)

CC(C)[C@H](NC(=O)[C@H](CCCNC(=N)N)NC(=O)[C@H](CCCNC(=N)N)NC(=O)OCc1ccccc1)C(=O)NCCc1ccccc1 [Compound A-221] (HELM PEPTIDE1{[O=C(OCc1ccccc1)[*:2]].R.R.V.[c1ccc(CCN[*:1])cc1]}$$$$V2.0)
cytotoxicity (LDH), in words [1]: no adverse effects | present in human plasma [6]: 85–90% | MBC ([2]; H2O): 256 µg/mL (≈ 384 µM) | MBC ([2]; water additive DMSO): 256 µg/mL (≈ 384 µM) | MBC ([2]; water additive EtOH): 256 µg/mL (≈ 384 µM) | cytotoxicity (LDH), in words [3]: slight cytotoxicity | MIC ([4]; H2O): > 512 µg/mL | MIC ([4]; water additive DMSO): > 512 µg/mL | MIC ([4]; water additive EtOH): > 512 µg/mL

CC(C)[C@H](NC(=O)[C@H](Cc1c[nH]cn1)NC(=O)[C@H](CCCNC(=N)N)NC(=O)OCc1ccccc1)C(=O)NCCc1ccccc1 [Compound A-219] (HELM PEPTIDE1{[O=C(OCc1ccccc1)[*:2]].R.H.V.[c1ccc(CCN[*:1])cc1]}$$$$V2.0)
cytotoxicity (LDH), in words [1]: no adverse effects | present in human plasma [6]: 85–90% | MIC ([2]; H2O): > 512 µg/mL | MIC ([2]; water additive DMSO): > 512 µg/mL | MIC ([2]; water additive EtOH): > 512 µg/mL | cytotoxicity (LDH), in words [3]: slight cytotoxicity | MIC ([4]; H2O): > 512 µg/mL | MIC ([4]; water additive DMSO): > 512 µg/mL | MIC ([4]; water additive EtOH): > 512 µg/mL

CC(C)[C@@H](CNC(=O)C(=Cc1ccccc1)c1ccccc1)NC(=O)[C@H](CCCNC(=N)N)NC(=O)[C@H](CCCCNC(=N)N)NC(=O)OCc1ccccc1 [Compound A-192]
cytotoxicity (LDH), in words [1]: high cytotoxicity toward keratinocytes | MBC ([2]; H2O): 32 µg/mL (≈ 41.6 µM) | MIC ([2]; H2O): 16 µg/mL (≈ 20.8 µM) | MBC ([2]; water additive DMSO): 32 µg/mL (≈ 41.6 µM) | MIC ([2]; water additive DMSO): 32 µg/mL (≈ 41.6 µM) | MBC ([2]; water additive EtOH): 32 µg/mL (≈ 41.6 µM) | MIC ([2]; water additive EtOH): 16 µg/mL (≈ 20.8 µM) | cytotoxicity (LDH), in words [3]: much lower | MIC ([4]; H2O): > 512 µg/mL | MBC ([4]; water additive DMSO): 512 µg/mL (≈ 666 µM) | MIC ([4]; water additive DMSO): 256 µg/mL (≈ 333 µM) | MIC ([4]; water additive EtOH): > 512 µg/mL | MBC ([5]; H2O): 16 µg/mL (≈ 20.8 µM) | MIC ([5]; H2O): 8 µg/mL (≈ 10.4 µM) | MBC ([5]; water additive DMSO): 16 µg/mL (≈ 20.8 µM) | MIC ([5]; water additive DMSO): 8 µg/mL (≈ 10.4 µM) | MBC ([5]; water additive EtOH): 16 µg/mL (≈ 20.8 µM) | MIC ([5]; water additive EtOH): 8 µg/mL (≈ 10.4 µM)

CC(C)[C@H](NC(=O)[C@H](Cc1c[nH]cn1)NC(=O)[C@H](CCCCN)NC(=O)OCc1ccccc1)C(=O)NCCc1ccccc1 [Compound A-220] (HELM PEPTIDE1{[O=C(OCc1ccccc1)[*:2]].K.H.V.[c1ccc(CCN[*:1])cc1]}$$$$V2.0)
cytotoxicity (LDH) [1, 7]: 10–15% and 10% | concentration at which cytotoxic effect starts [1]: > 150 µg/mL | present in human plasma [6]: 85–90% | MBC ([2]; H2O): 512 µg/mL (≈ 826 µM) | MIC ([2]; H2O): 256 µg/mL (≈ 413 µM) | MBC ([2]; water additive DMSO): 512 µg/mL (≈ 826 µM) | MIC ([2]; water additive DMSO): 256 µg/mL (≈ 413 µM) | MBC ([2]; water additive EtOH): 512 µg/mL (≈ 826 µM) | MIC ([2]; water additive EtOH): 256 µg/mL (≈ 413 µM) | cytotoxicity (LDH) [3, 7]: 10–15% and 10% | concentration at which cytotoxic effect starts [3]: > 150 µg/mL | MBC ([4]; H2O): 512 µg/mL (≈ 826 µM) | MIC ([4]; H2O): 512 µg/mL (≈ 826 µM) | MIC ([4]; water additive DMSO): > 512 µg/mL | MBC ([4]; water additive EtOH): 512 µg/mL (≈ 826 µM) | MIC ([4]; water additive EtOH): 512 µg/mL (≈ 826 µM)
